Laboratory results published in ChEMBL document CHEMBL4819081 (Eur J Med Chem, 2021).
pIC50: −log10 of the molar value. Calls of active or inactive are those of the source. No cut-off for these calls is given here.

Key:
MDA-MB-231 [1] = experiment: Induction of cell cycle arrest in human MDA-MB-231 cells assessed as accumulation at S phase at 0.1875 uM after 12 hrs by propidium iodide staining-based flow cytometric analysis (reference value: 21.11%); format: functional
[2] = biological target: Cyclin-dependent kinase 9 (Homo sapiens, UniProt P50750); experiment: Inhibition of CDK9 (unknown origin)
Cyclin-dependent kinase 9, sequence (P50750 whole entry): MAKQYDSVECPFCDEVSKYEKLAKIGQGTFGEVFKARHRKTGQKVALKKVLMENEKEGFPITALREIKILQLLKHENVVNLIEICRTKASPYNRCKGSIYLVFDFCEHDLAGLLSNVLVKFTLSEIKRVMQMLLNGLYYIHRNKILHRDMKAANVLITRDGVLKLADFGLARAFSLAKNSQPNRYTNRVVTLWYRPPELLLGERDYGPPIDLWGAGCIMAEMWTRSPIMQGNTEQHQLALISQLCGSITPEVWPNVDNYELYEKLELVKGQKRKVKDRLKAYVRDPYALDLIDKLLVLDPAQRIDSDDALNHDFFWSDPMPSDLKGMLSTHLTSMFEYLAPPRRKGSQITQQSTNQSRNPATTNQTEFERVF

MDA-MB-453 = experiment: Potency index, ratio of IC50 for Palbociclib to IC50 for test compound for antiproliferative activity against human MDA-MB-453 cells assessed as reduction in cell viability after 72 hrs by MTT assay; format: functional
MDA-MB-231 [3] = experiment: Induction of apoptosis in human MDA-MB-231 cells assessed as early apoptotic cells at 2.5 uM after 24 hrs by Annexin-V/PI-staining based flow cytometry (reference value: 2.67%); format: functional
MDA-MB-231 [4] = experiment: Induction of cell cycle arrest in human MDA-MB-231 cells assessed as accumulation at S phase at 0.75 uM after 12 hrs by propidium iodide staining-based flow cytometric analysis (reference value: 23.71%); format: functional
MDA-MB-231 [5] = experiment: Induction of cell cycle arrest in human MDA-MB-231 cells assessed as accumulation at G1 phase at 0.375 uM after 12 hrs by propidium iodide staining-based flow cytometric analysis (reference value: 53.11%); format: functional
MDA-MB-231 [6] = experiment: Induction of cell cycle arrest in human MDA-MB-231 cells assessed as accumulation at G2 phase at 1.5 uM after 12 hrs by propidium iodide staining-based flow cytometric analysis (reference value: 21.11%); format: functional
MDA-MB-231 [7] = experiment: Antitumor activity against human MDA-MB-231 cells xenografted in po dosed BALB/c mouse assessed as reduction in tumor volume measured every 3 days for 21 days; format: functional, organism-based; conditions: dose 40-80 mg/kg, time 21.0 day
NCI-H1299 = experiment: Antiproliferative activity against human NCI-H1299 cells assessed as reduction in cell viability after 72 hrs by MTT assay; format: functional, cell-based; conditions: NCI-H1299, 72 h
MDA-MB-231 [8] = experiment: Induction of apoptosis in human MDA-MB-231 cells assessed as early apoptotic cells at 5 uM after 24 hrs by Annexin-V/PI-staining based flow cytometry (reference value: 2.67%); format: functional
MDA-MB-231 [9] = experiment: Potency index, ratio of IC50 for Palbociclib to IC50 for test compound for antiproliferative activity against human MDA-MB-231 cells assessed as reduction in cell viability after 72 hrs by MTT assay; format: functional
MDA-MB-231 [10] = experiment: Antitumor activity against human MDA-MB-231 cells xenografted in po dosed BALB/c mouse assessed as reduction in tumor weight measured every 3 days for 21 days; format: functional, organism-based; conditions: dose 40-80 mg/kg, time […]
MCF7 = experiment: Antiproliferative activity against human MCF7 cells assessed as reduction in cell viability after 72 hrs by MTT assay; format: functional, cell-based; conditions: MCF7, 72 h
MDA-MB-231 [11] = experiment: Induction of apoptosis in human MDA-MB-231 cells assessed as early apoptotic cells at 1.25 uM after 24 hrs by Annexin-V/PI-staining based flow cytometry (reference value: 2.67%); format: functional
[12] = biological target: T1, Cyclin-dependent kinase 4/cyclin D1 (Homo sapiens) (UniProt P11802+P24385); experiment: Inhibition of CDK4/Cyclin D1 (unknown origin) at 200 nM using ATP by mobility shift assay; format: protein-complex assay
MDA-MB-231 [13] = experiment: Induction of cell cycle arrest in human MDA-MB-231 cells assessed as accumulation at G1 phase at 0.1875 uM after 12 hrs by propidium iodide staining-based flow cytometric analysis (reference value: 53.11%); format: functional
MDA-MB-231 [14] = experiment: Induction of apoptosis in human MDA-MB-231 cells assessed as early apoptotic cells at 0.625 uM after 24 hrs by Annexin-V/PI-staining based flow cytometry (reference value: 2.67%); format: functional
CDK7/Cyclin H/MNAT1 = CDK7/Cyclin H/MNAT1 (Homo sapiens, UniProt P50613); experiment: Inhibition of CDK7/cyclin H/MAT1 (unknown origin); format: protein-complex assay
CDK7/Cyclin H/MNAT1, sequence (P51946 whole entry): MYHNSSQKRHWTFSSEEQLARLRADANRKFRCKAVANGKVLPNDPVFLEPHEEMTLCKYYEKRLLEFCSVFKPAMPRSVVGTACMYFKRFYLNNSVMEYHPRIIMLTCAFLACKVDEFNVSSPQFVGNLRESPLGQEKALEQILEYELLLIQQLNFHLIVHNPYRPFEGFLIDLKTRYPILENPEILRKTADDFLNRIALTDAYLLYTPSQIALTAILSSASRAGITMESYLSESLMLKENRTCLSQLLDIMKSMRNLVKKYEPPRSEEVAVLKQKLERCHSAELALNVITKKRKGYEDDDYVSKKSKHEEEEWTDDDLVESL
CDK7/Cyclin H/MNAT1, sequence (P50613 whole entry): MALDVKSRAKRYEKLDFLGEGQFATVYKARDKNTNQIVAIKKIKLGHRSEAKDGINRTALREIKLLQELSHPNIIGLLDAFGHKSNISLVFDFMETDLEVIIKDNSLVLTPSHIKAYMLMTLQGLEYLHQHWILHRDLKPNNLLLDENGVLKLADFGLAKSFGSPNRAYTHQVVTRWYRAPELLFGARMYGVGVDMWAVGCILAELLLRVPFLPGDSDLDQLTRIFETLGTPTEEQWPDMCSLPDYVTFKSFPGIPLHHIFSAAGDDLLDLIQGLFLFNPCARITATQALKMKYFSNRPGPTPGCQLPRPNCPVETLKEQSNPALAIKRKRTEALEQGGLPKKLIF
CDK7/Cyclin H/MNAT1, sequence (P51948 whole entry, further chain): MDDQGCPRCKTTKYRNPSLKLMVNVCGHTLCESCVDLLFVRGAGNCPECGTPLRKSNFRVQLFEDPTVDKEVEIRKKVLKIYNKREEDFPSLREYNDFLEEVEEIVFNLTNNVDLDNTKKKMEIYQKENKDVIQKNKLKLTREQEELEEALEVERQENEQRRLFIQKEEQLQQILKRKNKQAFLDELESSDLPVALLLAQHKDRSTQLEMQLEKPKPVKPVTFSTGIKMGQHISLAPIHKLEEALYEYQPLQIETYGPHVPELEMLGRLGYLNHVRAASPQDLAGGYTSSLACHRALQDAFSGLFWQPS

MDA-MB-231 [15] = experiment: Antiproliferative activity against human MDA-MB-231 cells assessed as reduction in cell viability after 72 hrs by MTT assay; format: functional, cell-based; conditions: MDA-MB-231, 72 h
[16] = biological target: T2, CDK6/cyclin D3 (Homo sapiens) (UniProt P30281+Q00534); experiment: Inhibition of CDK6/Cyclin D3 (unknown origin) at 200 nM using ATP by mobility shift assay; format: protein-complex assay
MDA-MB-231 [17] = experiment: Induction of cell cycle arrest in human MDA-MB-231 cells assessed as accumulation at G2 phase at 0.75 uM after 12 hrs by propidium iodide staining-based flow cytometric analysis (reference value: 21.11%); format: functional
MDA-MB-231 [18] = experiment: Induction of cell cycle arrest in human MDA-MB-231 cells assessed as accumulation at S phase at 1.5 uM after 12 hrs by propidium iodide staining-based flow cytometric analysis (reference value: 23.71%); format: functional
MDA-MB-231 [19] = experiment: Induction of apoptosis in human MDA-MB-231 cells assessed as late apoptotic cells at 1.25 uM after 24 hrs by Annexin-V/PI-staining based flow cytometry (reference value: 3.02%); format: functional
CDK4/Cyclin D3 = CDK4/Cyclin D3 (Homo sapiens, UniProt P11802); experiment: Inhibition of CDK4/Cyclin D3 (unknown origin) by mobility shift assay; format: protein-complex assay
CDK4/Cyclin D3, sequence (P11802 whole entry): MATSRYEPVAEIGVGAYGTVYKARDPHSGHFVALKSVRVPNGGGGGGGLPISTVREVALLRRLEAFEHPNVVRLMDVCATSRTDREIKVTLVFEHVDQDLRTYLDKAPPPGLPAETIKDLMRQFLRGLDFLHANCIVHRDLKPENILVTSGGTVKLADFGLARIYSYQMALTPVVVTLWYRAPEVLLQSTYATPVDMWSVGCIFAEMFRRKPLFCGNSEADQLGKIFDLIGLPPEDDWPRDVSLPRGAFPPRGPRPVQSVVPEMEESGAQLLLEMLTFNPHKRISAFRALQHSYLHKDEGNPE
CDK4/Cyclin D3, sequence (P30281 whole entry, further chain): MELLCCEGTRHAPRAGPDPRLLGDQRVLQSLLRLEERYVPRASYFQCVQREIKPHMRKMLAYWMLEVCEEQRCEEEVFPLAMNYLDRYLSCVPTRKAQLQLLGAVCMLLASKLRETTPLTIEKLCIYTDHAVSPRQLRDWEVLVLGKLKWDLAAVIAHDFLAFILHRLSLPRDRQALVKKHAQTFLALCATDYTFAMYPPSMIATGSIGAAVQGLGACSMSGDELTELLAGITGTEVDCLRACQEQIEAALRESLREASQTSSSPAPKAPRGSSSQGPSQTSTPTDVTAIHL

[20] = biological target: T1, Cyclin-dependent kinase 4/cyclin D1 (Homo sapiens); experiment: Inhibition of CDK4/Cyclin D1 (unknown origin) at 20 nM using ATP by mobility shift assay; format: protein-complex assay
MDA-MB-231 [21] = experiment: Induction of cell cycle arrest in human MDA-MB-231 cells assessed as accumulation at S phase at 0.1875 uM after 12 hrs by propidium iodide staining-based flow cytometric analysis (reference value: 23.71%); format: functional
[22] = biological target: Cyclin-dependent kinase 1/cyclin B1 (Homo sapiens, UniProt P06493); experiment: Inhibition of CDK1/cyclin B (unknown origin); format: protein-complex assay
Cyclin-dependent kinase 1/cyclin B1, sequence (P06493 whole entry): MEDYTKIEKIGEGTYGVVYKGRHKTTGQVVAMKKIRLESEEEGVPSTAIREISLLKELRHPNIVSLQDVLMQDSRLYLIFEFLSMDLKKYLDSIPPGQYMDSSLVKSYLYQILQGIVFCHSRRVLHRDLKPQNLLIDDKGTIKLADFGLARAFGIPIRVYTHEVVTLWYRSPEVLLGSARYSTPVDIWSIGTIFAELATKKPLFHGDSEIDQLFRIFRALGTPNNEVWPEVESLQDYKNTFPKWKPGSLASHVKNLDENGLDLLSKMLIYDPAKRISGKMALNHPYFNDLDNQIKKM
Cyclin-dependent kinase 1/cyclin B1, sequence (P14635 whole entry, further chain): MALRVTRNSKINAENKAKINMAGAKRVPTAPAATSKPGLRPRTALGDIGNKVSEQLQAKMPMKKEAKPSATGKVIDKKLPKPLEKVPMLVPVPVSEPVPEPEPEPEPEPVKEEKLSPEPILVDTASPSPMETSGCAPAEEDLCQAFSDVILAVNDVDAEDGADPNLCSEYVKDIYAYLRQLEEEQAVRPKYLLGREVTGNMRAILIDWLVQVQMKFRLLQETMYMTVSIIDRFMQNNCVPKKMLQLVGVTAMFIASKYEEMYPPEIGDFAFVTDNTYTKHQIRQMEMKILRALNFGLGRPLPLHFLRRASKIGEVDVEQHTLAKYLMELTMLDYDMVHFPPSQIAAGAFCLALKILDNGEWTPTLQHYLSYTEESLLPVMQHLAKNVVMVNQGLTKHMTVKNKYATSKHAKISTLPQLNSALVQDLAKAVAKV

[23] = Toxicity in BALB/c mouse xenografted with human MDA-MB-231 cells assessed as body weight change at 40 to 80 mg/kg, po measured every 3 days for 21 days; format: organism-based; conditions: in vivo, 72 h, dose 40-80 mg/kg, time 3 day
MDA-MB-231 [24] = experiment: Inhibition of clone formation in human MDA-MB-231 cells at 0.16 uM after 14 days by crystal violet staining based-colony formation assay; format: functional, cell-based; conditions: time 14.0 day
MDA-MB-231 [25] = experiment: Induction of apoptosis in human MDA-MB-231 cells assessed as late apoptotic cells at 0.625 uM after 24 hrs by Annexin-V/PI-staining based flow cytometry (reference value: 3.02%); format: functional
MDA-MB-231 [26] = experiment: Induction of cell cycle arrest in human MDA-MB-231 cells assessed as accumulation at S phase at 0.375 uM after 12 hrs by propidium iodide staining-based flow cytometric analysis (reference value: 21.11%); format: functional
MDA-MB-231 [27] = experiment: Induction of apoptosis in human MDA-MB-231 cells assessed as late apoptotic cells at 5 uM after 24 hrs by Annexin-V/PI-staining based flow cytometry (reference value: 3.02%); format: functional
CDK2/Cyclin A2 = CDK2/Cyclin A2 (Homo sapiens, UniProt P24941); experiment: Inhibition of CDK2/cyclin A2 (unknown origin); format: protein-complex assay
[28] = biological target: T2, CDK6/cyclin D3 (Homo sapiens); experiment: Inhibition of CDK6/Cyclin D3 (unknown origin) at 20 nM using ATP by mobility shift assay; format: protein-complex assay
MDA-MB-231 [29] = experiment: Antitumor activity against human MDA-MB-231 cells xenografted in BALB/c mouse assessed as tumor growth inhibition at 40 mg/kg, po measured every 3 days for 21 days; format: functional; conditions: MDA-MB-231, po, 504 h, time 21 day, read-out: TGI

CC(=O)c1c(C)c2cnc(Nc3ccc(N4CCN(C(=O)CCl)CC4)cn3)nc2n(C2CCCC2)c1=O
Activity (MDA-MB-231 [1]): 13.82% | pIC50 [2]: 5.74 | Ratio IC50 (MDA-MB-453): 40 | Activity (MDA-MB-231 [3]): 17.09% | Activity (MDA-MB-231 [4]): 11.05% | Activity (MDA-MB-231 [5]): 68.34% | Activity (MDA-MB-231 [6]): 19.72% | inhibition (MDA-MB-231 [7]): Dose-Dependent Effect | pIC50 (NCI-H1299): 5.60 | Activity (MDA-MB-231 [8]): 44.02% | Ratio IC50 (MDA-MB-231 [9]): 4 | inhibition (MDA-MB-231 [10]): Dose-Dependent Effect | pIC50 (MCF7): 6.42 | Activity (MDA-MB-231 [11]): 7.72% | inhibition [12]: 93.8% | Activity (MDA-MB-231 [13]): 68.04% | Activity (MDA-MB-231 [14]): 4.24% | pIC50 (CDK7/Cyclin H/MNAT1): < 5.48 | pIC50 (MDA-MB-231 [15]): 5.92 | inhibition [16]: 95.3% | Activity (MDA-MB-231 [17]): 16.49% | Activity (MDA-MB-231 [18]): 7.55% | Activity (MDA-MB-231 [19]): 9.72% | pIC50 (CDK4/Cyclin D3): 8.21 | inhibition [20]: 61.7% | Activity (MDA-MB-231 [21]): 15.55% | pIC50 [22]: < 5.00 | Activity [23]: Non-Toxic | inhibition (MDA-MB-231 [24]): Active | Activity (MDA-MB-231 [25]): 3.82% | Activity (MDA-MB-231 [26]): 14.99% | Activity (MDA-MB-231 [27]): 27.32% | pIC50 (CDK2/Cyclin A2): 5.12 | inhibition [28]: 81.6% | inhibition in vivo at 40 mg/kg (MDA-MB-231 [29]): 93.5%
